Test results reported in patent publication US20230115534A1 (ARKUDA THERAPEUTICS, priority 2019, published 2023).
Counter-ions that a name gives are not always drawn.

Tested on: progranulin (PGRN)
Experiment: progranulin induction cellular assay (PGRN assay), ELISA-based readout
Details: PGRN assay as described: mouse primary microglia, primary cortical neurons and BV-2 cell lines; secreted mouse PGRN in medium by ELISA; cell type for Table B not specified
Description: Cellular Assays: To measure the efficacy of compounds, a progranulin induction cellular assay in mouse primary microglia (pMG), primary cortical neurons, and BV-2 cell lines is used. BV-2 cells are split the day before plating into a 96 well plate format at approximately 80%. Cells should be plated the day before and allowed for 1 hour attachment period and for 16 hour incubation. Levels of progranulin secreted into the cell culture medium or retained in the cell lysate can be quantified using an ELISA-based readout and measurement of secreted mouse PGRN in the medium was assessed by the methodology published by Ghidoni et al. 2012. Standard ELISA kits to measure PGRN are available from vendors such as Adipogen, R&D, and Biovendor.
Table B below presents the results of a PGRN assay as described above.

Compound: O=C(OC12CC(N3CCCC3=O)(C1)C2)N1CCc2ccccc2[C@@H]1c1ccc(F)cc1 [Compound 4025, 3-(2-Oxopyrrolidin-1-yl)bicyclo[1.1.1]pentan-1-yl (S)-1-(4-fluorophenyl)-3,4-dihydroisoquinoline-2(1H)-carboxylate]
- EC50: > 10000 nM

Compound: CNC12CC(OC(=O)N3CCc4ccccc4[C@@H]3c3ccc(F)cc3)(C1)C2 [Compound 4026, 3-(Methylamino)bicyclo[1.1.1]pentan-1-yl (S)-1-(4-fluorophenyl)-3,4-dihydroisoquinoline-2(1H)-carboxylate hydrochloride]
- EC50: 850 nM

Compound: CS(=O)(=O)CCNC12CC(OC(=O)N3CCc4ccccc4[C@@H]3c3ccc(F)cc3)(C1)C2 [Compound 4027, 3-((2-(Methylsulfonyl)ethyl)amino)bicyclo[1.1.1]pentan-1-yl (S)-1-(4-fluorophenyl)-3,4-dihydroisoquinoline-2(1H)-carboxylate hydrochloride]
- EC50: 1060 nM

Compound: N[C@H]1C[C@@H](CNC(=O)N2CCc3ccccc3[C@@H]2c2ccc(F)cc2)C1 [Compound 4028, Cis-(S)—N-((3-aminocyclobutyl)methyl)-1-(4-fluorophenyl)-3,4-dihydroisoquinoline-2(1H)-carboxamide]
- EC50: 2320 nM

Compound: N[C@H]1C[C@H](CNC(=O)N2CCc3ccccc3[C@@H]2c2ccc(F)cc2)C1 [Compound 4029, Trans-(S)—N-((3-aminocyclobutyl)methyl)-1-(4-fluorophenyl)-3,4-dihydroisoquinoline-2(1H)-carboxamide]
- EC50: 3400 nM

Compound: NC[C@H]1C[C@@H](OC(=O)N2CCc3ccccc3[C@@H]2c2ccc(F)cc2)C1 [Compound 4030, Cis-3-(aminomethyl)cyclobutyl (S)-1-(4-fluorophenyl)-3,4-dihydroisoquinoline-2(1H)-carboxylate]
- EC50: 9640 nM

Compound: NC[C@H]1C[C@H](OC(=O)N2CCc3ccccc3[C@@H]2c2ccc(F)cc2)C1 [Compound 4031, Trans-3-(aminomethyl)cyclobutyl (S)-1-(4-fluorophenyl)-3,4-dihydroisoquinoline-2(1H)-carboxylate]
- EC50: > 10000 nM

Compound: NC[C@H]1C[C@@H](NC(=O)N2CCc3ccccc3[C@@H]2c2ccc(F)cc2)C1 [Compound 4032, (S)—N-(cis-3-(aminomethyl)cyclobutyl)-1-(4-fluorophenyl)-3,4-dihydroisoquinoline-2(1H)-carboxamide]
- EC50: > 10000 nM

Compound: NC1(COC(=O)N2CCc3ccccc3[C@@H]2c2ccc(F)cc2)CC1 [Compound 4033, (1-Aminocyclopropyl)methyl (S)-1-(4-fluorophenyl)-3,4-dihydroisoquinoline-2(1H)-carboxylate hydrochloride]
- EC50: 320 nM

Compound: N[C@H]1C[C@@H](NC(=O)N2CCc3ccccc3[C@@H]2c2ccc(F)cc2)C1 [Compound 4034, (S)—N-(cis-3-aminocyclobutyl)-1-(4-fluorophenyl)-3,4-dihydroisoquinoline-2(1H)-carboxamide]
- EC50: 370 nM

Compound: N[C@H]1C[C@H](NC(=O)N2CCc3ccccc3[C@@H]2c2ccc(F)cc2)C1 [Compound 4035, (S)—N-(trans-3-aminocyclobutyl)-1-(4-fluorophenyl)-3,4-dihydroisoquinoline-2(1H)-carboxamide hydrochloride]
- EC50: 490 nM

Compound: N[C@H]1C[C@H](OC(=O)N2CCc3ccccc3[C@@H]2c2ccc(F)cc2)C1 [Compound 4036, Trans-3-aminocyclobutyl (S)-1-(4-fluorophenyl)-3,4-dihydroisoquinoline-2(1H)-carboxylate hydrochloride]
- EC50: 1120 nM

Compound: C[C@]1(N)C[C@@H](NC(=O)N2CCc3ccccc3[C@@H]2c2ccc(F)cc2)C1 [Compound 4041, (S)—N-(cis-3-amino-3-methylcyclobutyl)-1-(4-fluorophenyl)-3,4-dihydroisoquinoline-2(1H)-carboxamide hydrochloride]
- EC50: 310 nM

Compound: C[C@]1(N)C[C@H](NC(=O)N2CCc3ccccc3[C@@H]2c2ccc(F)cc2)C1 [Compound 4042, (S)—N-(trans-3-amino-3-methylcyclobutyl)-1-(4-fluorophenyl)-3,4-dihydroisoquinoline-2(1H)-carboxamide hydrochloride]
- EC50: 59 nM

Compound: CN[C@H]1C[C@H](NC(=O)N2CCc3ccccc3[C@@H]2c2ccc(F)cc2)C1 [Compound 4043, (S)-1-(4-fluorophenyl)-N-(trans-3-(methylamino)cyclobutyl)-3,4-dihydroisoquinoline-2(1H)-carboxamide hydrochloride]
- EC50: 900 nM

Compound: CN[C@H]1C[C@H](N(C)C(=O)N2CCc3ccccc3[C@@H]2c2ccc(F)cc2)C1 [Compound 4044, (S)-1-(4-fluorophenyl)-N-methyl-N-((trans)-3-(methylamino)cyclobutyl)-3,4-dihydroisoquinoline-2(1H)-carboxamide hydrochloride]
- EC50: 1030 nM

Compound: CN[C@H]1C[C@@H](NC(=O)N2CCc3ccccc3[C@@H]2c2ccc(F)cc2)C1 [Compound 4045, (S)-1-(4-fluorophenyl)-N-(cis-3-(methylamino)cyclobutyl)-3,4-dihydroisoquinoline-2(1H)-carboxamide hydrochloride]
- EC50: 600 nM

Compound: N[C@H]1C[C@@H](COC(=O)N2CCc3ccccc3[C@@H]2c2ccc(F)cc2)C1 [Compound 4046, (Cis-3-aminocyclobutyl)methyl (S)-1-(4-fluorophenyl)-3,4-dihydroisoquinoline-2(1H)-carboxylate]
- EC50: 920 nM

Compound: N[C@H]1C[C@H](COC(=O)N2CCc3ccccc3[C@@H]2c2ccc(F)cc2)C1 [Compound 4047, (Trans-3-aminocyclobutyl)methyl (S)-1-(4-fluorophenyl)-3,4-dihydroisoquinoline-2(1H)-carboxylate]
- EC50: 1640 nM

Compound: CC(C)(OC(=O)N1CCc2ccccc2C1c1ccc(F)cc1)C12CC(N)(C1)C2 [Compound 4048, 2-(3-Aminobicyclo[1.1.1]pentan-1-yl)propan-2-yl (S)-1-(4-fluorophenyl)-3,4-dihydroisoquinoline-2(1H)-carboxylate]
- EC50: 1090 nM

Compound: O=C(OC12CC(N3CCOCC3)(C1)C2)N1CCc2ccccc2[C@@H]1c1ccc(F)cc1 [Compound 4049, 3-Morpholinobicyclo[1.1.1]pentan-1-yl (S)-1-(4-fluorophenyl)-3,4-dihydroisoquinoline-2(1H)-carboxylate hydrochloride]
- EC50: > 10000 nM

Compound: CC(C)(NC(=O)N1CCc2ccccc2C1c1ccc(F)cc1)C12CC(N)(C1)C2 [Compound 4050, (S)—N-(2-(3-aminobicyclo[1.1.1]pentan-1-yl)propan-2-yl)-1-(4-fluorophenyl)-3,4-dihydroisoquinoline-2(1H)-carboxamide hydrochloride]
- EC50: > 10000 nM

Compound: CNC1(COC(=O)N2CCc3ccccc3[C@@H]2c2ccc(F)cc2)CC1 [Compound 4051, (1-(Methylamino)cyclopropyl)methyl (S)-1-(4-fluorophenyl)-3,4-dihydroisoquinoline-2(1H)-carboxylate hydrochloride]
- EC50: 460 nM

Compound: O=C(NC12CC(N3CC(F)(F)C3)(C1)C2)N1CCc2ccccc2[C@@H]1c1ccc(F)cc1 [Compound 4052, (S)—N-(3-(3,3-difluoroazetidin-1-yl)bicyclo[1.1.1]pentan-1-yl)-1-(4-fluorophenyl)-3,4-dihydroisoquinoline-2(1H)-carboxamide]
- EC50: > 10000 nM

Compound: C[C@]1(NC(=O)N2CCc3ccccc3[C@@H]2c2ccc(F)cc2)C[C@H](N)C1 [Compound 4053, (S)—N-((trans)-3-amino-1-methylcyclobutyl)-1-(4-fluorophenyl)-3,4-dihydroisoquinoline-2(1H)-carboxamide]
- EC50: 31 nM

Compound: C[C@]1(NC(=O)N2CCc3ccccc3[C@@H]2c2ccc(F)cc2)C[C@@H](N)C1 [Compound 4054, (S)—N-((cis)-3-amino-1-methylcyclobutyl)-1-(4-fluorophenyl)-3,4-dihydroisoquinoline-2(1H)-carboxamide]
- EC50: 120 nM

Compound: CN(C(=O)N1CCc2ccccc2[C@@H]1c1ccc(F)cc1)[C@H]1C[C@H](N)C1 [Compound 4055, (S)—N-((trans)-3-aminocyclobutyl)-1-(4-fluorophenyl)-N-methyl-3,4-dihydroisoquinoline-2(1H)-carboxamide]
- EC50: 160 nM

Compound: NC12CC(CC(=O)N3CCc4ccccc4C3c3ccc(F)cc3)(C1)C2 [Compound 4056, (S)-2-(3-aminobicyclo[1.1.1]pentan-1-yl)-1-(1-(4-fluorophenyl)-3,4-dihydroisoquinolin-2(1H)-yl)ethan-1-one]
- EC50: 1440 nM

Compound: CNC12CC(CC(=O)N3CCc4ccccc4C3c3ccc(F)cc3)(C1)C2 [Compound 4057, (S)-1-(1-(4-fluorophenyl)-3,4-dihydroisoquinolin-2(1H)-yl)-2-(3-(methylamino)bicyclo[1.1.1]pentan-1-yl)ethan-1-one]
- EC50: 1750 nM

Compound: CNC12CC(CCC(=O)N3CCc4ccccc4C3c3ccc(F)cc3)(C1)C2 [Compound 4058, (S)-1-(1-(4-fluorophenyl)-3,4-dihydroisoquinolin-2(1H)-yl)-3-(3-(methylamino)bicyclo[1.1.1]pentan-1-yl)propan-1-one hydrochloride]
- EC50: 900 nM

Compound: NC[C@H]1CC[C@@H]1OC(=O)N1CCc2ccccc2[C@@H]1c1ccc(F)cc1 [Compound 4064]
- EC50: 968 nM

Compound: NC[C@H]1CC[C@H]1OC(=O)N1CCc2ccccc2[C@@H]1c1ccc(F)cc1 [Compound 4065]
- EC50: 821 nM

Compound: CN[C@H]1C[C@@H](NC(=O)N2CCc3ccccc3[C@@H]2c2ccc(F)cc2)C1 [Compound 4066]
- EC50: 610 nM

Compound: CN[C@H]1C[C@@H](N(C)C(=O)N2CCc3ccccc3[C@@H]2c2ccc(F)cc2)C1 [Compound 4067]
- EC50: 913 nM

Compound: CN(C)[C@H]1C[C@@H](NC(=O)N2CCc3ccccc3[C@@H]2c2ccc(F)cc2)C1 [Compound 4068]
- EC50: 290 nM
